Experimental data taken from the supplement of paper PMC10307832.

Experiments:
Assay in all cases: relative viability (nuclei count vs DMSO), 5 days (fraction); higher = more cells survive
[1] = compound: CC[C@H](C)N1C=C(C2=C(C=C(C=C21)C3=CN=C(C=C3)N4CCNCC4)C(=O)NCC5=C(C=C(NC5=O)C)C)C [GSK126] + C[C@@H](Oc1cc(-c2cnn(C3CCNCC3)c2)cnc1N)c1c(Cl)ccc(F)c1Cl [Crizotinib] (partner 1 µM)
Outline: (§1)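 Cells from lung cancer lines were seeded into 1536-well plates and, one day later, dosed by pin tool. Treatments were either a single drug or a fixed dose of an anchor drug with five library-drug doses (not always all listed) in √10 steps. After 5 days, nuclei were stained in a one-step fixation (final 0.05% Triton X-100, 1% formaldehyde, 1 ug/ml Hoechst) and counted on 4× images, and relative viability is the treated-to-vehicle nuclei ratio, as the median of duplicate plates.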

[2] = compound: NS(=O)(=O)OC[C@@H]1C[C@@H](n2ccc3c(N[C@H]4CCc5ccccc54)ncnc32)C[C@@H]1O [MLN4924] + Cc1cc(Nc2cc(N3CCN(C)CC3)nc(Sc3ccc(NC(=O)C4CC4)cc3)n2)n[nH]1 [Tozasertib] (partner 0.1 µM)
Outline: as §1

[3] = compound: CC[C@H](C)N1C=C(C2=C(C=C(C=C21)C3=CN=C(C=C3)N4CCNCC4)C(=O)NCC5=C(C=C(NC5=O)C)C)C [GSK126] + N=C(N)NC(=N)NCCc1ccccc1 [Phenformin] (partner 250 µM)
Outline: as §1

[4] = compound: C1CC(C1)(C(=O)O)C(=O)O.[NH2-].[NH2-].[Pt+2] [Carboplatin] + N=C(N)NC(=N)NCCc1ccccc1 [Phenformin] (partner 250 µM)
Outline: as §1

Cell Line	relative viability ([1]; first compound 0.08 µM)	relative viability ([1]; first compound 0.253 µM)	relative viability ([1]; first compound 0.8 µM)	relative viability ([1]; first compound 2.53 µM)	relative viability ([1]; first compound 8 µM)	relative viability ([2]; first compound 0.04 µM)	relative viability ([2]; first compound 0.1265 µM)	relative viability ([2]; first compound 0.4 µM)	relative viability ([2]; first compound 1.265 µM)	relative viability ([2]; first compound 4 µM)	relative viability ([3]; first compound 0.08 µM)	relative viability ([3]; first compound 0.253 µM)	relative viability ([3]; first compound 0.8 µM)	relative viability ([3]; first compound 2.53 µM)	relative viability ([3]; first compound 8 µM)	relative viability ([4]; first compound 0.08 µM)	relative viability ([4]; first compound 0.253 µM)	relative viability ([4]; first compound 0.8 µM)	relative viability ([4]; first compound 2.53 µM)	relative viability ([4]; first compound 8 µM)
NCI-H1703	0.806	0.313	0.42	0.592	0.583															
NCI-H1793						0.337	0.356	0.368	0.252	0.168	0.407	0.458	0.384	0.274	0.235	0.444	0.496	0.289	0.35	0.405
NCI-H522						0.503	0.502	0.458	0.363	0.304	0.62	0.671	0.662	0.743	0.601	0.516	0.679	0.648	0.686	0.64
LOU-NH91	0.759	0.71	0.737	0.773	0.727	0.641	0.689	0.502	0.336	0.342	0.785	0.755	0.692	0.662	0.639	0.871	0.646	0.714	0.708	0.675
NCI-H1355	1.16	1.14	0.981	1.06	1.02	0.549	0.553	0.576	0.3	0.204	0.524	0.448	0.434	0.454	0.391	0.524	0.478	0.465	0.405	0.451
NCI-H441	0.936	0.732	0.642	0.441	0.86	0.674	0.444	0.329	0.236	0.22	0.991	0.727	0.708	0.946	0.826	0.769	0.963	1	0.876	0.839
NCI-H1395						0.72	0.609	0.475	0.397	0.337	0.487	0.446	0.43	0.506	0.474	0.476	0.446	0.497	0.379	0.402
NCI-H2023	0.839	0.678	0.747	0.74	0.747	0.35	0.31	0.171	0.0719	0.0659	0.445	0.383	0.373	0.377	0.278	0.447	0.413	0.381	0.27	0.145
NCI-H1666	1.33	0.838	0.938	1.04	1.23	0.56	0.635	0.447	0.266	0.27	0.586	0.595	0.598	0.522	0.569	0.612	0.6	0.531	0.565	0.49
HCC-15	0.882	0.873	0.786	0.748	0.709	0.266	0.167	0.129	0.0769	0.0852	0.513	0.419	0.457	0.422	0.442	0.562	0.47	0.441	0.407	0.37
NCI-H1648						0.417	0.164	0.247	0.203	0.279										
NCI-H3122	0.251	0.341	0.292	0.267	0.347	0.347	0.226	0.113	0.0963	0.103	0.405	0.367	0.364	0.351	0.319	0.4	0.399	0.385	0.37	0.359
Calu-6	0.906	0.749	0.806	0.844	0.759															
EBC-1	0.204	0.203	0.182	0.193	0.173															
IA-LM	0.831	1.12	0.79	0.729	0.947															
NCI-H1563	0.922	0.755	0.848	0.78	0.718						0.665	0.676	0.654	0.596	0.646	0.691	0.668	0.672	0.7	0.631
NCI-H1299	0.952	0.959	0.779	0.941	0.873															
NCI-H2342						0.416	0.455	0.533	0.445	0.408	0.942	0.566	0.558	0.525	0.759	0.759	0.709	0.616	0.638	0.615
SW 900						0.625	0.474	0.435	0.171	0.114	0.637	0.479	0.721	0.502	0.576	0.713	0.561	0.608	0.431	0.414
NCI-H1623						0.42	0.372	0.398	0.203	0.195	0.631	0.594	0.602	0.589	0.537	0.586	0.609	0.586	0.534	0.513
A549	0.925	0.677	0.709	0.807	0.652						0.245	0.169	0.126	0.131	0.114	0.186	0.193	0.16	0.112	0.073
NCI-H1792	1.03	1.01	1.03	0.996	0.951						0.344		0.262	0.255	0.228	0.318	0.317	0.192	0.203	0.237
